Assay [1] can be described thus: MITF Measured in Cell-Based System Using Plate Reader - 2084-01_Inhibitor_Dose_DryPowder_Activity_Set6. The format is functional.
A short description of assay [2]: melanocyte viability loss, MITF-dependent cells, cell-based, plate reader, dry powder, cytotoxicity control, dose response (AID 651920). The format is functional.
The nature of assay [3]: inhibitors of TRPM1-promoter reporter in SK-MEL-5 – cell-based, luciferase, dry powder, set 9, MITF inhibitor project, dose response (AID 651588). In kind it is functional.
Assay [4] is described as follows: MITF Orthogonal Assay: SK-MEL-5 CTG Assay Measured in Cell-Based System Using Plate Reader - 2084-02_Inhibitor_Dose_DryPowder_Activity_Set5. In kind it is functional.
The nature of assay [5]: growth inhibition of MALME3 cells – cell-based, CellTiter-Glo luminescence, dry powder, set 5, orthogonal assay for MITF inhibitor project, dose response (AID 651584). As to conditions: MALME-3. In kind it is functional.
Assay [6] in a line: cytotoxicity in MITF-independent A375 cells – cell-based, CellTiter-Glo luminescence, dry powder, set 9, counter-screen for MITF modulator project, dose response (AID 651591). In kind it is functional. As to conditions: A-375.
Assay [7] is described as follows: cytotoxicity in MITF-independent A375 cells – cell-based, CellTiter-Glo luminescence, dry powder, set 4, counter-screen for MITF inhibitor project, dose response (AID 624364).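 Further: A375 melanoma cells are MITF independent so this is a counter screen.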 The following applies: A-375. In kind it is functional. (In general: Cellular ATP, detected with luciferase, serves as a proxy for viable cell number.)
The nature of assay [8]: cytotoxicity in melanoma parental cells – cell-based, CellTiter-Glo, dry powder, set 6, MITF inhibitor project, dose response (AID 624429). In kind it is functional. As to conditions: SK-MEL-5.
Assay [9] in a line: viability loss in MITF-independent A375 cells – cell-based, CellTiter-Glo luminescence, dry powder, set 6, counter-screen for MITF inhibitor project, dose response (AID 624488). The format is functional. As to conditions: A-375.
Assay [10] in a line: growth inhibition of SK-MEL-5 melanoma cells – cell-based, CellTiter-Glo luminescence, dry powder, set 8, orthogonal assay for MITF inhibitor project, dose response (AID 651586). The format is functional.
Assay [11] in a line: viability loss in MITF-independent A375 cells – cell-based, CellTiter-Glo luminescence, dry powder, set 7, counter-screen for MITF inhibitor project, dose response (AID 624490). In kind it is functional. The following applies: A-375.
Assay [12] in a line: MITF Measured in Cell-Based System Using Plate Reader - 2084-01_Inhibitor_Dose_DryPowder_Activity_Set7. In kind it is functional.
Assay [13] can be described thus: MITF Orthogonal Assay: MALME3 CTG Assay Measured in Cell-Based System Using Plate Reader - 2084-04_Inhibitor_Dose_DryPowder_Activity_Set6. In kind it is functional. The following applies: MALME-3.
For the next assay, the target named is Phospholipase D2 (Homo sapiens, UniProt O14939). Kind of assay: PLD2 Cellular Concentration Response Study. In kind it is functional.
Chain of Phospholipase D2 (O14939 whole entry): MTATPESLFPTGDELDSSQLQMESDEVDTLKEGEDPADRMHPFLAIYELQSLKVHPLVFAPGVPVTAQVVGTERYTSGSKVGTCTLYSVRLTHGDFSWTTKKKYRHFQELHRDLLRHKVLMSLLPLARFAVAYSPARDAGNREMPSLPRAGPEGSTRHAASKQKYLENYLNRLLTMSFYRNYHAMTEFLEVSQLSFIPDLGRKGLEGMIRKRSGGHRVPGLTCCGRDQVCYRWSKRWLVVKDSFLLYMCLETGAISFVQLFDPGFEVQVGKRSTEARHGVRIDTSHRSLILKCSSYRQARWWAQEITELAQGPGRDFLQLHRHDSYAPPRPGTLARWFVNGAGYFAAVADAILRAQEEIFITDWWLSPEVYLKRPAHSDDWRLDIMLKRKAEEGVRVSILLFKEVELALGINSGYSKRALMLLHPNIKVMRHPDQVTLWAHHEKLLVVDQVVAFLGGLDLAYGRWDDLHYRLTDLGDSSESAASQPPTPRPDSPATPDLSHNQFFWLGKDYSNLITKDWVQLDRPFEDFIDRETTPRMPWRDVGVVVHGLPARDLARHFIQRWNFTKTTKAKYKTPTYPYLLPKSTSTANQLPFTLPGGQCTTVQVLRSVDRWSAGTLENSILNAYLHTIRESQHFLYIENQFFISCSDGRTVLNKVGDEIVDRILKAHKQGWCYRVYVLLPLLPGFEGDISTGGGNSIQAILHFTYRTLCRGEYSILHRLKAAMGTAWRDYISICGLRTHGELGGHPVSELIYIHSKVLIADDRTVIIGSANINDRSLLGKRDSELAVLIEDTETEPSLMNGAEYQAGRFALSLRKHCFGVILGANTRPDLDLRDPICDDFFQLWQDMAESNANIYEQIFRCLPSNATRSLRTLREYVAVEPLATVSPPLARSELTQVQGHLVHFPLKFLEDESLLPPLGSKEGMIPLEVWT
The next assay deals with Phospholipase D1 (Homo sapiens, UniProt Q13393). Put plainly: PLD1 Cellular Concentration Response Study. The format is functional.
Chain of Phospholipase D1 (Q13393 whole entry): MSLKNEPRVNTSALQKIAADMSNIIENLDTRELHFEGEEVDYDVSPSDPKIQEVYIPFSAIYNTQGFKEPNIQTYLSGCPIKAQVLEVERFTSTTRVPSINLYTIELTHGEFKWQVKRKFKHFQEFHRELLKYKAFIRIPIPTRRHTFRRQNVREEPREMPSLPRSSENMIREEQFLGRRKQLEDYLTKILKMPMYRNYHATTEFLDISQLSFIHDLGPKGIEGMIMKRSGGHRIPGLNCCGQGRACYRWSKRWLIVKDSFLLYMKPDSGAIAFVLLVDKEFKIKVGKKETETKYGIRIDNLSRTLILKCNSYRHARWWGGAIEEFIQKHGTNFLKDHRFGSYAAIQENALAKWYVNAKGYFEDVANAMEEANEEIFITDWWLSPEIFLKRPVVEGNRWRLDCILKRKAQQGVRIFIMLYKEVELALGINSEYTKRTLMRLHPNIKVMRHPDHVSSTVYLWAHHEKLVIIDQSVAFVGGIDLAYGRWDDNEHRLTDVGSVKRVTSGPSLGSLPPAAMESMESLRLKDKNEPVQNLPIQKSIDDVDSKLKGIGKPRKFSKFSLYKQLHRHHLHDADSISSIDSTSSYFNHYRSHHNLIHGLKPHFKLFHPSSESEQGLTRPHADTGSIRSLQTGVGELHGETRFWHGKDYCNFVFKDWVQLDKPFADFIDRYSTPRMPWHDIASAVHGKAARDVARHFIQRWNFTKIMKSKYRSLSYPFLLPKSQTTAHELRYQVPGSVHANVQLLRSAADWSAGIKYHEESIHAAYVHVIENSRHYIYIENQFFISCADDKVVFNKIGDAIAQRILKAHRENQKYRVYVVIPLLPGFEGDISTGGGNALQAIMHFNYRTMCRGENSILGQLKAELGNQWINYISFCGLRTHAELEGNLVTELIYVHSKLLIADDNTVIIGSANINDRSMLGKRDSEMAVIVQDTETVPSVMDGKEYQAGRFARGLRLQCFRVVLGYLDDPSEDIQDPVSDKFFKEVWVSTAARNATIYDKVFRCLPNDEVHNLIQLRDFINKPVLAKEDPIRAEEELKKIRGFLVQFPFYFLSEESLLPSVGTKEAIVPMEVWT
Assay [14] is described as follows: P. falciparum Dd2 growth inhibitors, dose response, SYBR Green, cherry-picked samples (AID 1159567). The format is functional, cell-based.
Assay [15] in a line: Dd2 malaria parasite growth inhibition potency – SYBR Green, dry powder samples, dose response (AID 1159566).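 Further: potency for growth inhibition with lower SYBR green DNA signal.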 In kind it is functional, cell-based.
Assay [16] is described as follows: growth inhibition of yeast DHODH-expressing 3D7 parasites – SYBR Green, dry powder samples, dose response (AID 1159570).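 Further: parasite growth measured after 72 hours of compound exposure.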 In kind it is functional, cell-based.
The nature of assay [17]: growth inhibition of PfATP4-mutant resistant parasites – NITD609-resistant line, SYBR Green, dry powder, dose response (AID 1159571).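 Further: parasites synchronized at ring stage by sorbitol before testing.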 In kind it is functional, cell-based.

The values that follow come from ChEMBL document CHEMBL1201862, “PubChem BioAssay data set” (2004).

Active and inactive are the calls of the source.

On to `COC1=C(NS(=O)(=O)c2cccs2)C(=O)c2ccccc2C1=O`, for which the half-maximal activity concentration (AC50) (usually the concentration giving half of the maximal activity seen) in assay [1] is 13.2 µM (active); in assay [2], 64.3 µM (active); in assay [3], 26.3 µM (active); in assay [4], 19.1 µM (active); in [5], 38 µM (active); in [6], > 70 µM (inactive). Moreover, the AC50 is > 70 µM (inactive) in [7]; 20.2 µM (active) in assay [8]; 64.7 µM (active) in assay [9]; 21 µM (active) in assay [10]; > 70 µM (inactive) in [11]; 12.3 µM (active) in [12]. Also, in assay [13], the AC50 was 38 µM (active).

Turning to `O=C(NCCN1CCC2(CC1)C(=O)NCN2Cc1cccnc1)c1cc2cc(F)ccc2[nH]1`, the IC50 (in general, the point on the concentration scale where inhibition reaches its midpoint) at Phospholipase D2 was 0.12 µM (active); on Phospholipase D1, 3.15 µM (active).

Turning to `COc1ccc2c3c(n(C)c2c1)[C@@H](CO)N(C(=O)c1ccc(F)cc1)CC31CCN(C(=O)Nc2ccc(F)cc2)CC1`, the AC50 is 1.89 µM (active) in [14], 0.795 µM (active) in assay [15], 1.04 µM (active) in assay [16] and 1.06 µM (active) in [17].
